ChEMBL document CHEMBL5385916, “Discovery of a novel series of pyridone amides as NaV1.8 inhibitors” (Bioorg Med Chem Lett, 2024)
pIC50: −log10 of the molar value. Activity calls are given as the source filed them. No cut-off for these calls is given here.

Assays:
[1] = target: Sodium channel protein type 5 subunit alpha (Homo sapiens, UniProt Q14524); assay: Binding affinity to Nav1.5 (unknown origin) expressed in HEK293T cells assessed as retention time by cell membrane chromatography analysis; format: cell membranes
Sodium channel protein type 5 subunit alpha, sequence (Q14524 whole entry): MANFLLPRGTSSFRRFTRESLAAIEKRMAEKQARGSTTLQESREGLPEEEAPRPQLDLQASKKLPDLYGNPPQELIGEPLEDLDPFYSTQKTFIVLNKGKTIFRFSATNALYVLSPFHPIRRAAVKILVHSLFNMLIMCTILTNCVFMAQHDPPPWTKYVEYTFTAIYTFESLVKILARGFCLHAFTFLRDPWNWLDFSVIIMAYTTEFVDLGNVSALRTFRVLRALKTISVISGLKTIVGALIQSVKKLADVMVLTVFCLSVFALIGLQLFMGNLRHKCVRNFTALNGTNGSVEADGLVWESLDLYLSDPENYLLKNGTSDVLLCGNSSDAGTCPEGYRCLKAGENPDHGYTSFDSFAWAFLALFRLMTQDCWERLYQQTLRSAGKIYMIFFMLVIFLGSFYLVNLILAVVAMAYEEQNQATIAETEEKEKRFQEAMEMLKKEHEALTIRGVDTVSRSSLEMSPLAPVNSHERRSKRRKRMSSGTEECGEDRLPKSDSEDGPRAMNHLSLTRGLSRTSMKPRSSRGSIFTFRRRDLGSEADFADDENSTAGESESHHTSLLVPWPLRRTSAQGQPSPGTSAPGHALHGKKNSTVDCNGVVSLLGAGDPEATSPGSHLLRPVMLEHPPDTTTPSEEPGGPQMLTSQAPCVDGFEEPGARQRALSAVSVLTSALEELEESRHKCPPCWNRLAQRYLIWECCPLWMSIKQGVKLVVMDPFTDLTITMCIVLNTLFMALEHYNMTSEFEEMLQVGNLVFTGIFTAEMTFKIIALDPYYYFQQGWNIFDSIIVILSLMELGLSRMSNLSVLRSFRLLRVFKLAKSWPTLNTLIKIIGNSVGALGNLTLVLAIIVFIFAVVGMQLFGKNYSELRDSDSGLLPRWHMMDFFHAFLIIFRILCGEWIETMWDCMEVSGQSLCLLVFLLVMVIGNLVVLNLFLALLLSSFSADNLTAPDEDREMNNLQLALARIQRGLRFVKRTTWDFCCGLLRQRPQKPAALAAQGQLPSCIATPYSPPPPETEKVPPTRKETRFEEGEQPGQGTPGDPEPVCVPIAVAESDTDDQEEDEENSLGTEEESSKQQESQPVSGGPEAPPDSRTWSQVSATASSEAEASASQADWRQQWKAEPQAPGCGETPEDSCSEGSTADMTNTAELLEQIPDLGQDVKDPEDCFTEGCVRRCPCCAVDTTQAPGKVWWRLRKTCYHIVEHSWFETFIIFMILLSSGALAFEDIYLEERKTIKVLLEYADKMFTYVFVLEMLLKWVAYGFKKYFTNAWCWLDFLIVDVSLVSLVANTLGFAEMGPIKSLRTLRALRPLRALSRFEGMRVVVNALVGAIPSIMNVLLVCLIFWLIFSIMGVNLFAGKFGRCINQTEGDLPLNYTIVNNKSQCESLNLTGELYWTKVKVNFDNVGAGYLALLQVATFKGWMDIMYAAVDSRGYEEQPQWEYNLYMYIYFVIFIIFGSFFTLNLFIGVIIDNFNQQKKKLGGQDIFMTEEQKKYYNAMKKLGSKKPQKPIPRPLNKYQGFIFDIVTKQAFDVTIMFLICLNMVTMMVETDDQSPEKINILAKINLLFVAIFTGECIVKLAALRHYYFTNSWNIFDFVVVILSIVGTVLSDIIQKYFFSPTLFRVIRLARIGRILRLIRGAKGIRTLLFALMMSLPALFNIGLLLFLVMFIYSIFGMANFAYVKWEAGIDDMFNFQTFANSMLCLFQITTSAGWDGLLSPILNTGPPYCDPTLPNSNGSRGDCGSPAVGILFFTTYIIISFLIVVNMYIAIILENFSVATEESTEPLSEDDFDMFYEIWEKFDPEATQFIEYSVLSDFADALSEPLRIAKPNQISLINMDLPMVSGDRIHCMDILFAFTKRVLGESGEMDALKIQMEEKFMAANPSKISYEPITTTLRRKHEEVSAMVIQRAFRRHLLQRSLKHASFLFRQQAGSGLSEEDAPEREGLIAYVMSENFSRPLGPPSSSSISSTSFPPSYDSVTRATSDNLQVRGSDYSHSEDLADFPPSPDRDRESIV

[2] = target: T1, Sodium channel protein type 10 subunit alpha (Homo sapiens, UniProt Q9Y5Y9); assay: Binding affinity to Nav1.8 (unknown origin) expressed in HEK293T cells assessed as retention time by cell membrane chromatography analysis; format: cell membranes
Target sequence in this assay (Q9Y5Y9 whole entry, looked up): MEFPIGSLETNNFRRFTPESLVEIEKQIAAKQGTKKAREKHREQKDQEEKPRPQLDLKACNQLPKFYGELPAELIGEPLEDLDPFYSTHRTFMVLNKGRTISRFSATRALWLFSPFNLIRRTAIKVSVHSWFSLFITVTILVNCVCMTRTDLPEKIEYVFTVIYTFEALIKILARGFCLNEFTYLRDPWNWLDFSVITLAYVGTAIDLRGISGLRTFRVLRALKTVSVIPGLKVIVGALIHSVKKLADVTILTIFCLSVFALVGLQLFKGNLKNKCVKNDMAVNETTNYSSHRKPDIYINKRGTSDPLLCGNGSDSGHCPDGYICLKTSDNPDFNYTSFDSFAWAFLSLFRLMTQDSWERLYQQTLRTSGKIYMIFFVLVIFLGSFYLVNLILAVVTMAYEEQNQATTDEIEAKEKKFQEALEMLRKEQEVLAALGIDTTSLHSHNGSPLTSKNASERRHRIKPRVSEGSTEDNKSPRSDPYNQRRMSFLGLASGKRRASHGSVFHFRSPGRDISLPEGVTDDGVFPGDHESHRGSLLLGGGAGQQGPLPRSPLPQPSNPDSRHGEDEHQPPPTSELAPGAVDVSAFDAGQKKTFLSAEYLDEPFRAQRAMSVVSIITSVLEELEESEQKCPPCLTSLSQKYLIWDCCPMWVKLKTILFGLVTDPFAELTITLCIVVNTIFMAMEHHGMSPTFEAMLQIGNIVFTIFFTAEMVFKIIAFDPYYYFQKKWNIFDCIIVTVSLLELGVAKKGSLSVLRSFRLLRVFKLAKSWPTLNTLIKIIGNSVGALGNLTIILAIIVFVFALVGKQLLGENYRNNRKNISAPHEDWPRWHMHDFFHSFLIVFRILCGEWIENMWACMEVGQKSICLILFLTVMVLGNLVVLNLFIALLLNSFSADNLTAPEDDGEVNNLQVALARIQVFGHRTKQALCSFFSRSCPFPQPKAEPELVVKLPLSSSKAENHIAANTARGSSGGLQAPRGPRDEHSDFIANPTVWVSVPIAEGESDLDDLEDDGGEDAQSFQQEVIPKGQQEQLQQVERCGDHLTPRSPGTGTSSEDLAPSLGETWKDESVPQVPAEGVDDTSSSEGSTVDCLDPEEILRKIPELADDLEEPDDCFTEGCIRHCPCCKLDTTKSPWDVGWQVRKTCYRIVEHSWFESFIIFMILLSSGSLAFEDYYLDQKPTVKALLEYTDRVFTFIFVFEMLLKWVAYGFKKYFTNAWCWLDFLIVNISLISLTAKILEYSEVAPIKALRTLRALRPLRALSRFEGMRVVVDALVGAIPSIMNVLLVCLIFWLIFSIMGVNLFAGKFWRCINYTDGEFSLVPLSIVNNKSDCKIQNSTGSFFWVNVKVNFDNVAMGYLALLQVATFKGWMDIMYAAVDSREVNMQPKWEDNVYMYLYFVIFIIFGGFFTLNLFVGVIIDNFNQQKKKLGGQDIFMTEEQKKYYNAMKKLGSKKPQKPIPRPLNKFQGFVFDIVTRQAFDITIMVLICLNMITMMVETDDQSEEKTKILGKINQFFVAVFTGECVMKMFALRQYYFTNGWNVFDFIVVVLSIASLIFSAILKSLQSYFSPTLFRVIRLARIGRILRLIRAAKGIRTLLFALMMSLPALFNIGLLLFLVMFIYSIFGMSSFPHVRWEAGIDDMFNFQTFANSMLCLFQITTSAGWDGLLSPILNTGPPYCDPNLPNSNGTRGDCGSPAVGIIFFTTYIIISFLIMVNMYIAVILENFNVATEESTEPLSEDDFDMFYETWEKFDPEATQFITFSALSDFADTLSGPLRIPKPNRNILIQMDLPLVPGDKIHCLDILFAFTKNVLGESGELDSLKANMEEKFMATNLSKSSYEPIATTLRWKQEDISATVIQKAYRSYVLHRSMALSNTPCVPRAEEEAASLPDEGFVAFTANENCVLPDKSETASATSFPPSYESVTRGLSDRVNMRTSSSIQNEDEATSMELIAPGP

[3] = Selectivity ratio of binding affinity to Nav1.8 (unknown origin) expressed in HEK293T cells assessed as retention time to binding affinity to Nav1.5 (unknown origin) expressed in HEK293T cells assessed as retention time; format: cell-based
Mus musculus [4] = assay: Analgesic activity in CFA-induced inflammatory pain mouse model assessed as paw withdrawal response to von frey stimuli at 100 microg/kg, ip; format: functional, organism-based; conditions: dose 100.0 µg/kg
[5] = target: T1, Sodium channel protein type 10 subunit alpha; assay: Inhibition of Nav1.8 in HEK293 cells under resting state; format: cell-based
Mus musculus [6] = assay: Analgesic activity in chronic constriction injury mouse model assessed as paw withdrawal response to von frey stimuli at 100 microg/kg, ip administered for 8 days and measured upto 9 hrs; format: functional, organism-based; conditions: dose 100.0 µg/kg, time <= 201.0 hrs
[7] = target: T1, Sodium channel protein type 10 subunit alpha; assay: Inhibition of Nav1.8 (unknown origin) at 10 uM under half inaction state by whole-cell patch clamp analysis relative to control
Target sequence in this assay (Q9Y5Y9 whole entry, looked up): as above

[8] = target: T1, Sodium channel protein type 10 subunit alpha; assay: Inhibition of Nav1.8 (unknown origin) at 10 uM under resting state by whole-cell patch clamp analysis relative to control
Target sequence in this assay (Q9Y5Y9 whole entry, looked up): as above

[9] = target: T1, Sodium channel protein type 10 subunit alpha; assay: Inhibition of Nav1.8 in HEK293 cells under half inaction state; format: cell-based
Mus musculus [10] = assay: Analgesic activity in cold pain hypersensitivity mouse model at 100 microg/kg, ip measured for 8 days; format: functional, organism-based; conditions: dose 100.0 µg/kg, time 8.0 day
Mus musculus [11] = assay: Analgesic activity in CFA-induced inflammatory pain mouse model assessed as paw withdrawal response to von frey stimuli at 100 microg/kg, po administered for 8 days and measured upto 7 hrs; format: functional, organism-based; conditions: dose 100.0 µg/kg, time <= 199.0 hrs
Mus musculus [12] = assay: Analgesic activity in CFA-induced inflammatory pain mouse model assessed as paw withdrawal response to von frey stimuli at 100 microg/kg, ip measured for 9 hrs; format: functional, organism-based; conditions: dose 100.0 µg/kg
Mus musculus [13] = assay: Analgesic activity in CFA-induced inflammatory pain mouse model assessed as paw withdrawal response to von frey stimuli at 100 microg/kg, ip measured for 5 hrs; format: functional, organism-based; conditions: dose 100.0 µg/kg
Mus musculus [14] = assay: Analgesic activity in chronic constriction injury mouse model at 100 microg/kg, ip administered for 10 to 14 days; format: functional, organism-based; conditions: dose 100.0 µg/kg, time 10-14 day
[15] = Toxicity in mouse assessed as adverse effects at 100 microg/kg, ip administered for 8 days and measured upto 9 hrs; format: organism-based; conditions: in vivo, 0.1 mg/kg, 201 h, dose 100 µg/kg
Mus musculus [16] = assay: Analgesic activity in chronic constriction injury mouse model assessed as fold increase in AUC at 100 microg/kg, ip administered for 8 days relative to model group; format: functional; conditions: dose 100 µg/kg, time 8 day

SMILES | Retention time [2] | Retention_time [1] | Selectivity ratio [3] | Activity (Mus musculus [4]) | also measured
COc1cc(NC(=O)c2ccc([N+](=O)[O-])cc2Oc2ccc(F)cc2C)ccn1 | 4.6 min | 4.6 min | 0.62 |  | 
Cc1cc(F)ccc1Oc1cc([N+](=O)[O-])ccc1C(=O)Nc1cc[nH]c(=O)c1 | 4.5 min | 4.5 min | 0.52 |  | 
COc1cc(NC(=O)c2ncc(C(F)(F)F)cc2Oc2ccc(F)cc2C)ccn1 | 22 min | 12.3 min | 1.79 | Active | inhibition [7]: 84.5%; inhibition [8]: 82.5%; Activity (Mus musculus [12]): Active; Activity (Mus musculus [13]): Active
COc1cc(NC(=O)c2ccc(C(F)(F)F)cc2Oc2ccc(F)cc2C)ccn1 | 6.1 min | 17.8 min | 0.34 |  | 
COc1cccc(NC(=O)c2ccc(C(F)(F)F)cc2Oc2ccc(F)cc2C)c1 | 4.6 min | 7.3 min | 0.63 |  | 
Cc1cc(F)ccc1Oc1cc(C(F)(F)F)ccc1C(=O)Nc1cccc(O)c1 | 36.5 min | 7.1 min | 5.14 |  | 
Cc1cc(F)ccc1Oc1cc(C(F)(F)F)ccc1C(=O)NCc1ccccc1 | 56.1 min | > 60 min | 0.94 |  | 
Cc1cc(F)ccc1Oc1cc(C(F)(F)F)ccc1C(=O)Nc1ccncc1 | 30 min | 3 min | 10 | Active | 
Cc1cc(F)ccc1Oc1cc(C(F)(F)F)ccc1C(=O)Nc1ccccc1 | 5.8 min | 7.3 min | 0.79 |  | 

Continued, in another order:

Retention time [2] | SMILES | Retention_time [1] | Selectivity ratio [3] | Activity (Mus musculus [4]) | also measured
10.1 min | O=C(Nc1cc[nH]c(=O)c1)c1ccc(C(F)(F)F)cc1OC1CC=CC1 | 16.4 min | 0.61 |  | 
4.7 min | O=C(Nc1cc[nH]c(=O)c1)c1ccc(C(F)(F)F)cc1Oc1ccccc1 | 8.6 min | 0.55 |  | 
6 min | Cc1cc(F)ccc1Oc1cc(C(F)(F)F)ccc1C(=O)NCc1cc[nH]c(=O)c1 | 9.1 min | 0.66 |  | 
1.6 min | O=C(Nc1cc[nH]c(=O)c1)c1ccc(C(F)(F)F)cc1Oc1ccncc1 | 1.7 min | 0.94 |  | 
10.5 min | O=C(Nc1cc[nH]c(=O)c1)c1ccc(C(F)(F)F)cc1N1CCC(C(F)(F)F)CC1 | 11.7 min | 0.9 | Active | pIC50 [5]: 6.29; inhibition ([5]; dose 0.1-10 µM): Dose-Dependent Effect; Activity (Mus musculus [6]): Active; inhibition [7]: 92.2%; inhibition [8]: 93.4%; pIC50 [9]: 6.33; inhibition ([9]; dose 0.1-10 µM): Dose-Dependent Effect; Activity (Mus musculus [10]): Active; Activity (Mus musculus [11]): Active; Activity (Mus musculus [12]): Active; Activity (Mus musculus [13]): Active; Activity (Mus musculus [14]): Active; Activity [15]: Non-Toxic; fold change (FC) (Mus musculus [16]): 2
11.8 min | Cc1cc(F)ccc1Oc1cc(C(F)(F)F)ccc1C(=O)Nc1cc[nH]c(=O)c1 | 20.6 min | 0.57 |  | 
2.4 min | O=C(Nc1cc[nH]c(=O)c1)c1ccc(C(F)(F)F)cc1Oc1ccc(F)nc1 | 2.6 min | 0.92 |  | 
> 60 min | Cc1cc(F)ccc1Oc1cc(C(F)(F)F)ccc1C(=O)Nc1ccc2cc[nH]c2c1 | > 60 min | 1 | Active | inhibition [7]: 1.55%; inhibition [8]: -0.26%
9.2 min | O=C(Nc1cc[nH]c(=O)c1)c1ccc(C(F)(F)F)cc1Sc1ccc(F)cc1 | 16.1 min | 0.57 | Active | inhibition [7]: 88.8%; inhibition [8]: 87.5%; Activity (Mus musculus [12]): Active; Activity (Mus musculus [13]): Active
53.8 min | CN1CCN(c2cc(C(F)(F)F)ccc2C(=O)Nc2cc[nH]c(=O)c2)CC1 | 1.3 min | 41.4 | Active | 
3.8 min | O=C(Nc1cc[nH]c(=O)c1)c1ccc(C(F)(F)F)cc1OC1CCC(F)(F)CC1 | 5.8 min | 0.66 |  | 
